Experimental data from US10782293B2, “Compositions and methods” (priority 2015, dated 2020).
Where two headings read alike, the source gives them in different places.

How the values were obtained:
[1] = tested on: antibodies in serum of cattle known not to be infected; assay type: binding
[2] = tested on: antibodies in serum of cattle infected with M. avium paratuberculosis (MAP); assay type: binding; conditions: serum 1:20, IgG Fc secondary antibody, average of four replicates
[3] = tested on: antibodies in serum of cattle infected with bovine M. tuberculosis (B tb); assay: ELISA assay of antibody binding to antigen, serum of cattle naturally infected with bovine TB
Protocol: The binding of antibodies in serum of cattle infected with M. tuberculosis or M. avium with the antigens detailed in example 3 was measured in an ELISA assay.
ELISA assays were carried out as known to those practiced in the art using 96 well plates. In the first procedure, the ELISA assay was carried out on 96-well microplates and the purified antigens were dissolved in n-hexane at a concentration of 62.5 μg/ml. The antigen solutions were diluted and 50 μl and placed in each well. The plates were left to dry at room temperature overnight. Blocking was done with 0.5% casein/PBS (400 μl/well) and the plates are left to incubate at 25° C. for 1 h. The casein was aspirated using the LT-3500 plate washer and the plates flicked dry. Then the serum (1:20 dilution in 0.5% casein/PBS, pH 7.4) was added to the plate (50 μl/well) and left to incubate at 25° C. for 1 h. The serum was aspirated and washed three times with (casein/PBS, 400 μl/well) using the same plate washer and the plates were flicked dry again. After that, the secondary antibody, in the example given IgG Fc (1:1000 dilution in 0.5% casein/PBS) was added to the plate (50 μl/well) and the plates were left to incubate at 25° C. for 30 min. The plates were washed three times again with (casein/PBS, 400 μl/well) and dried. Then, the OPD substrate was added to the plates, which were left to incubate at 25° C. for 30 min. Finally, 2.5 M H2SO4 (50 μl/well) was added and the absorbances of each well were read at 492, 450 and 630 nm using an LT-4000 plate reader.
Serum used in this work was obtained from cattle infected with MAP, diagnosed as naturally infected with bovine TB, or known not to be infected using standard assays.
All measurements were taken as four replicates unless otherwise stated. These were averaged to provide the data in the table which are optical density measurements at 492 nm.

[4] = VLA (Non-vaccinates) serum sample 21
[5] = VLA (Non-vaccinates) serum sample 22
[6] = VLA (Non-vaccinates) serum sample 23
[7] = VLA (Non-vaccinates) serum sample 24
[8] = VLA (Non-vaccinates) serum sample 25
[9] = VLA (Non-vaccinates) serum sample 26
[10] = VLA (Non-vaccinates) serum sample 27
[11] = VLA (Non-vaccinates) serum sample 28
[12] = VLA (Non-vaccinates) serum sample 29
[13] = VLA (Non-vaccinates) serum sample 30
[14] = VLA (Non-vaccinates) serum sample 31
[15] = VLA (Non-vaccinates) serum sample 32
[16] = VLA (Non-vaccinates) serum sample 33
[17] = VLA (Non-vaccinates) serum sample 34
[18] = VLA (Non-vaccinates) serum sample 35
[19] = VLA (Non-vaccinates) serum sample 36
[20] = serum MAP (experimentally infected)
[21] = VLA (Naturally infected) bovis serum sample 1
[22] = VLA (Naturally infected) bovis serum sample 2
[23] = VLA (Naturally infected) bovis serum sample 3
[24] = VLA (Naturally infected) bovis serum sample 4
[25] = VLA (Naturally infected) bovis serum sample 5
[26] = VLA (Naturally infected) bovis serum sample 6
[27] = VLA (Naturally infected) bovis serum sample 7
[28] = VLA (Naturally infected) bovis serum sample 8
[29] = VLA (Naturally infected) bovis serum sample 9
[30] = VLA (Naturally infected) bovis serum sample 10
[31] = VLA (Naturally infected) bovis serum sample 11
[32] = VLA (Naturally infected) bovis serum sample 12
[33] = VLA (Naturally infected) bovis serum sample 13
[34] = VLA (Naturally infected) bovis serum sample 14
[35] = VLA (Naturally infected) bovis serum sample 15
[36] = VLA (Naturally infected) bovis serum sample 16
[37] = VLA (Naturally infected) bovis serum sample 17
[38] = VLA (Naturally infected) bovis serum sample 18
[39] = VLA (Naturally infected) bovis serum sample 19
[40] = VLA (Naturally infected) bovis serum sample 20

Structure (SMILES) | optical density measurements at 492 nm [1, 4] | optical density measurements at 492 nm [1, 5] | optical density measurements at 492 nm [1, 6] | optical density measurements at 492 nm [1, 7] | optical density measurements at 492 nm [1, 8] | optical density measurements at 492 nm [1, 9] | optical density measurements at 492 nm [1, 10] | optical density measurements at 492 nm [1, 11] | optical density measurements at 492 nm [1, 12] | optical density measurements at 492 nm [1, 13] | optical density measurements at 492 nm [1, 14] | optical density measurements at 492 nm [1, 15] | optical density measurements at 492 nm [1, 16] | optical density measurements at 492 nm [1, 17] | optical density measurements at 492 nm [1, 18] | optical density measurements at 492 nm [1, 19] | optical density measurements at 492 nm ([2]; serum MAP (Naturally infected)) | optical density measurements at 492 nm [2, 20] | optical density measurements at 492 nm [3, 21] | optical density measurements at 492 nm [3, 22] | other results
CCCCCCCCCCCCCCCCCCCCCC[C@@H](C(=O)OCC1OC(OC2OC(COC(=O)[C@H](CCCCCCCCCCCCCCCCCCCCCC)[C@H](O)CCCCCCCCCCCCCCCC[C@H]3C[C@@H]3[C@@H](C)CCCCCCCCCCCCCCCCCCC(=O)O[C@@H](C)CCCCCCCCCCCCCCCCCC)C(O)C(O)C2O)C(O)C(O)C1O)[C@H](O)CCCCCCCCCCCCCCCC[C@H]1C[C@@H]1[C@@H](C)CCCCCCCCCCCCCCCCCCC(=O)O[C@@H](C)CCCCCCCCCCCCCCCCCC (stereo partly shown) [Antigen F] | 0.25 | 0.25 | 0.17 | 0.21 | 0.15 | 3.66 | 1.96 | 0.36 | 0.29 | 0.26 | 0.45 | 0.06 | 0.08 | 0.11 | 0.31 | 0.12 | 4.00 | 1.44 | 1.07 | 0.67 | optical density measurements at 492 nm [3, 23]: 2.47; optical density measurements at 492 nm [3, 24]: 0.67; optical density measurements at 492 nm [3, 25]: 0.29; optical density measurements at 492 nm [3, 26]: 0.18; optical density measurements at 492 nm [3, 27]: 0.51; optical density measurements at 492 nm [3, 28]: 2.23; optical density measurements at 492 nm [3, 29]: 0.18; optical density measurements at 492 nm [3, 30]: 0.24; optical density measurements at 492 nm [3, 31]: 0.31; optical density measurements at 492 nm [3, 32]: 1.08; optical density measurements at 492 nm [3, 33]: 0.66; optical density measurements at 492 nm [3, 34]: 0.23; optical density measurements at 492 nm [3, 35]: 0.12; optical density measurements at 492 nm [3, 36]: 0.62; optical density measurements at 492 nm [3, 37]: 0.47; optical density measurements at 492 nm [3, 38]: 0.52; optical density measurements at 492 nm [3, 39]: 0.69; optical density measurements at 492 nm [3, 40]: 1.08
CCCCCCCCCCCCCCCCCCCCCC[C@@H](C(=O)OCC1OC(OC2OC(CO)C(O)C(O)C2O)C(O)C(O)C1O)[C@H](O)CCCCCCCCCCCCCCCC[C@H]1C[C@@H]1[C@@H](C)CCCCCCCCCCCCCCCCCCC(=O)O[C@@H](C)CCCCCCCCCCCCCCCCCC (stereo partly shown) [Antigen G] | 0.37 | 0.14 | 0.24 | 0.51 | 0.27 | 0.82 | 0.55 | 0.46 | 1.58 | 0.16 | 1.99 | 0.06 | 0.10 | 0.07 | 0.07 | 0.07 | 4.38 | 4.38 | 3.68 | 2.78 | optical density measurements at 492 nm [3, 23]: 4.06; optical density measurements at 492 nm [3, 24]: 0.63; optical density measurements at 492 nm [3, 25]: 1.04; optical density measurements at 492 nm [3, 26]: 0.88; optical density measurements at 492 nm [3, 27]: 2.34; optical density measurements at 492 nm [3, 28]: 1.39; optical density measurements at 492 nm [3, 29]: 0.40; optical density measurements at 492 nm [3, 30]: 0.52; optical density measurements at 492 nm [3, 31]: 1.63; optical density measurements at 492 nm [3, 32]: 1.54; optical density measurements at 492 nm [3, 33]: 0.26; optical density measurements at 492 nm [3, 34]: 0.22; optical density measurements at 492 nm [3, 35]: 0.15; optical density measurements at 492 nm [3, 36]: 0.15; optical density measurements at 492 nm [3, 37]: 0.11; optical density measurements at 492 nm [3, 38]: 0.27; optical density measurements at 492 nm [3, 39]: 0.11; optical density measurements at 492 nm [3, 40]: 1.54
